# Like-named read-outs stand apart in the source and are kept apart here.
# Key:
# [1] = molecular target: Human soluble guanylate cyclase enzyme (hsGC) (Homo sapiens (Human), UniProt Q02108+Q02153); test: Purified human sGC enzyme activity assay; type: biochemical
# Description: Human soluble guanylate cyclase enzyme (hsGC) obtained from Enzo Inc. (P/N: ALX-201-177) was used to evaluate the activity of test compounds. The assay reactions contained 0.1 M Tris (pH 8.0), 0.5 mg/mL BSA (pH 8.0), 2 mM DTT, 2 mM MgCl2, 300 μM GTP, 1 mM 3-isobutyl-1-methylxanthine (IBMX) and 5 ng human soluble guanylate cyclase enzyme. Test compounds in DMSO were then added (2 μL, 10 or 30 μM final concentration) and incubated (200 μL, 96-well plate format) at 37° C. for 30 minutes. The controls were carried out using 2 μL DMSO. After the 30 minute incubation, the reaction was stopped with the addition of 200 μL of cold methanol. The plate was then centrifuged at 3,200 rpm for 10 minutes at room temperature. Supernatants (200 μL) were collected and transferred to a new 96 well plate for analysis.
# An 8 point cGMP (Sigma-Aldrich P/N: G6129) standard curve was prepared in assay buffer ranging from 0.156-20 μM. Samples for the cGMP standard curve were then diluted with an equal volume of methanol resulting in final cGMP concentrations of 0.078-10 μM.
# The cGMP standard curve was generated using GraphPad Prism Software.
# Calculations: Specific Activity was determined by the amount of cGMP formed (nmoles) per mg of sGC per min. Enzyme “fold-change” was calculated by dividing Specific Activity for test compounds by Specific Activity of DMSO controls.
# [2] = molecular target: soluble guanylate cyclase (sGC) (Homo sapiens (Human), UniProt Q02108+Q02153); test: sGC-HEK-cGMP assay run with SNP incubation (HEK WC assay); type: cell-based; conditions: for EC50: in the presence of 10 uM SNP
# Chain of soluble guanylate cyclase (sGC) (Q02153 whole entry): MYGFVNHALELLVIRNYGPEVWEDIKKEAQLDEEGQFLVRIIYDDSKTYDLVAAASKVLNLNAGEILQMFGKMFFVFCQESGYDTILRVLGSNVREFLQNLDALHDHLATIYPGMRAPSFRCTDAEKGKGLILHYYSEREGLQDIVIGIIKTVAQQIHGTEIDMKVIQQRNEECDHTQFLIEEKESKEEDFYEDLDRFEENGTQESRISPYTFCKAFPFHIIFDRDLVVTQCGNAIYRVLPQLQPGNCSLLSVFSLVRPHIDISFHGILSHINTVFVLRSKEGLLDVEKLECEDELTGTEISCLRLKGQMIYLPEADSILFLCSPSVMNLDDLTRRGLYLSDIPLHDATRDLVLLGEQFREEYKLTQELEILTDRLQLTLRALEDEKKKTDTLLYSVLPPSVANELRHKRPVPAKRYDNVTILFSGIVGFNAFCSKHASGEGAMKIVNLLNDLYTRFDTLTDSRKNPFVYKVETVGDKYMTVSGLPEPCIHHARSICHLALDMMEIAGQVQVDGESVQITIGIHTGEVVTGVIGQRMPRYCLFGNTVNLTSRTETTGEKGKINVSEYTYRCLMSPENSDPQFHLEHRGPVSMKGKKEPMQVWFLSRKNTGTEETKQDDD
# Chain of soluble guanylate cyclase (sGC) (Q02108 whole entry): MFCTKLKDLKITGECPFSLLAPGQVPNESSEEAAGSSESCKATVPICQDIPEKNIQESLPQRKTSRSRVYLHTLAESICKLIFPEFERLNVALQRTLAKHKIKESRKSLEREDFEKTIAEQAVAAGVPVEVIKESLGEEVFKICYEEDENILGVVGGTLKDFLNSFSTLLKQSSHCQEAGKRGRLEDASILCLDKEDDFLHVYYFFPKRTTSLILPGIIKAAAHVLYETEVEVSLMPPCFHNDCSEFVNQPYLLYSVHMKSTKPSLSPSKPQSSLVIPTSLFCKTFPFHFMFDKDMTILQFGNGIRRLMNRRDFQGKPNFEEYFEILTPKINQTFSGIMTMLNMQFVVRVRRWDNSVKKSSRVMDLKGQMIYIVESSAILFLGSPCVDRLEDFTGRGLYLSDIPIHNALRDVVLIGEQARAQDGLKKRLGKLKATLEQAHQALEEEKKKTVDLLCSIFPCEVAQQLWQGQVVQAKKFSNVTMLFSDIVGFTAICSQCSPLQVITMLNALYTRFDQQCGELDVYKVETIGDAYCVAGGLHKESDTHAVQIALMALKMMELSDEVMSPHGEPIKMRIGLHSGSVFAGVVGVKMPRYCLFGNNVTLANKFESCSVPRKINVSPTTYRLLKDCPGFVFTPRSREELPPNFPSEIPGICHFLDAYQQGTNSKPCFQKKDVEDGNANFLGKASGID
# Description: Human embryonic kidney cells (HEK293), endogenously expressing soluble guanylate cyclase (sGC), were used to evaluate the activity of test compounds. Compounds stimulating the sGC receptor should cause an increase in the intracellular concentration of cGMP. HEK 293 cells were seeded in Dulbecco's Modification of Eagle's Medium supplemented with fetal bovine serum (10% final) and L-glutamine (2 mM final) in a 200 μL volume at a density of 1×10^5 cells/well in a poly-D-lysine coated 96 well flat bottom plate and grown overnight at 37° C. Medium was aspirated and cells were washed with 1× Hank's Buffered Saline Salt Solution (200 μL). Cells were then incubated for 15 minutes at 37° C. with 0.5 mM 3-isobutyl-1-methylxanthine (200 μL). Test article and sodium nitroprusside were then added to the assay mixture (2 μL each) and incubated at 37° C. for 10 minutes. After the 10 minute incubation, the assay mixture was aspirated and 0.1M HCl (200 μL) was added to the cells. The plate was incubated at 4° C. for 30 minutes in the 0.1M HCl to stop the reaction and lysed the cells. The plates were then centrifuged at 1,200 g for 5 minutes at room temperature. Supernatants were collected and transferred to a new flat bottom 96 well plate for analysis. Vehicle controls were carried out using DMSO (1%). […] Samples were diluted with an equal volume of 1 M Ammonium Acetate (pH 7) to neutralize samples for better chromatography. […] EC50 values were calculated from concentration-response curves generated with GraphPad Prism Software.
# Thoracic aortic rings = test: Alternative thoracic aortic rings assay (Example 19b; resting tension as 100% inhibition); design: species or system rat; conditions: Rattus norvegicus; for inhibition at 1 µM: read-out: Percent Relaxation at 1 μM; for inhibition at 3 µM: read-out: Percent Relaxation at 3 μM; for EC50: read-out: Aortic Ring EC50; for inhibition at 10 µM: read-out: Percent Relaxation at 10 μM
# Description: Thoracic aortic rings were dissected from anesthetized (isoflurane) male Sprague-Dawley rats weighing 275-299 g. Tissues were immediately transferred to ice-cold Krebs-Henseleit solution, which had been aerated with 95% O2 and 5% CO2 for 30 minutes. Following removal of connective tissue, aortic sections were cut into 4 rings (˜2 mm each) and suspended on 2 L-shaped hooks, with one hook fixed at the bottom of the tissue bath (Schuler Organ Bath, Harvard Apparatus) and the other connected to a force transducer (F30 Force Transducer, Harvard Apparatus). Baths contained Krebs Henseleit solution (10 mL) heated to 37° C. and aerated with 95% O2 and 5% CO2. Rings were brought to an initial tension of 0.3-0.5 g and gradually raised to a resting tension of 1.0 g over 60 minutes. Rings were rinsed with Krebs Henseleit solution (heated to 37° C. and aerated with 95% O2 and 5% CO2) at 15 minute intervals until a stable baseline was obtained. Rings were considered to be stable after a resting tension of 1.0 g was maintained (for approximately 10 minutes) without need for adjustment. Rings were then contracted with 100 ng/mL phenylephrine by adding 100 uL of a 10 μg/mL phenylephrine stock solution. Tissues achieving a stable contraction were then treated in a cumulative, dose dependent manner with test compounds prepared in dimethylsulfoxide (DMSO). In some cases, tissues were rinsed three times over a 5 minute period with Krebs-Heinseleit's solution (heated to 37° C. and aerated with 95% O2 and 5% CO2), allowed to stabilize at baseline, and then used for characterization of other test articles or DMSO effects. All data were collected using the HSE-ACAD software provided by Harvard Apparatus. […] EC50 values were calculated from concentration-response curves generated with GraphPad Prism Software.
# [3] = read-out: HEK WC Assay (% Emax at 10 uM/with 10 uM SNP)
# [4] = read-out: HEK WC Assay (% Emax at 30 uM/with 10 uM SNP)
# [5] = read-out: HEK WC Assay (% Emax at 10 μM with 10 uM SNP)
# [6] = read-out: HEK WC Assay (% Emax at 30 μM with 10 uM SNP)
# [7] = read-out: HEK WC Assay (% Emax at 1 μM with 10 uM SNP)
# [8] = read-out: HEK WC Assay (% Emax at 10 μM/with 10 uM SNP)
# [9] = read-out: HEK WC Assay (% Emax at 30 μM/with 10 uM SNP)
# Chain of Human soluble guanylate cyclase enzyme (hsGC) (Q02153 whole entry): as the sequence (Q02153 whole entry) above
# Chain of Human soluble guanylate cyclase enzyme (hsGC) (Q02108 whole entry): as the sequence (Q02108 whole entry) above
SMILES,sGC Enzyme (specific activity at 10 μM) ([1]; 10 μM compound),sGC Enzyme (fold increase at 10 μM without SNP) ([1]; 10 μM compound),sGC Enzyme (specific activity at 30 μM) ([1]; 30 μM compound),sGC Enzyme (fold increase at 30 μM without SNP) ([1]; 30 μM compound),"Emax at 10 µM [2, 3]","Emax at 30 µM [2, 4]",inhibition at 1 µM (Thoracic aortic rings; Table 10B),inhibition at 3 µM (Thoracic aortic rings; Table 10B),EC50 (Thoracic aortic rings; Table 10B),further results
Fc1cccc(-c2cc(-c3ccccn3)nn2Cc2ccccc2F)c1 [Compound I-9],C (C = 100 to <200),A (A = no increase to <2 fold increase),C (C = 100 to <200),B (B = 2 to <5 fold increase),0 to 10%,0 to 10%,,,,
Nc1nc(-c2cc(-c3ccon3)n(Cc3ccccc3F)n2)ncc1NC(=O)C1CC1 [Compound I-144],,,,,,,80 to 100%,100 to 120%,< 2000 nM,"EC50 [2]: < 20000 nM; Emax [2, 5]: 100 to 120%; Emax [2, 6]: 60 to 80%"
CC1(C(=O)Nc2cnc(-c3cc(-c4ccon4)n(Cc4ccccc4F)n3)nc2N)CC1(F)F (centres unmarked) [Compound I-245],,,,,,,80 to 100%,100 to 120%,< 2000 nM,"inhibition at 10 µM (Thoracic aortic rings; Table 10B): 100 to 120%; EC50 [2]: < 20000 nM; Emax [2, 7]: 80 to 100%; Emax [2, 5]: 100 to 120%; Emax [2, 6]: 100 to 120%"
Nc1nc(-c2cc(-c3ccon3)n(Cc3ccccc3F)n2)ncc1F [Compound I-109],,,,,,,,,,inhibition at 1 µM (Thoracic aortic rings; Table 10A): 80 to 100%; inhibition at 3 µM (Thoracic aortic rings; Table 10A): 60 to 80%; inhibition at 10 µM (Thoracic aortic rings; Table 10A): 100 to 120%; EC50 (Thoracic aortic rings; Table 10A): < 2000 nM
N#Cc1cccc(-c2cc(-c3ccccn3)nn2Cc2ccccc2F)c1 [Compound I-16],B (B = 50 to <100),A (A = no increase to <2 fold increase),B (B = 50 to <100),A (A = no increase to <2 fold increase),,,,,,
Cc1cc(-c2cc(-c3ncccn3)nn2Cc2ccccc2F)c(C)s1 [Compound I-14],C (C = 100 to <200),A (A = no increase to <2 fold increase),C (C = 100 to <200),A (A = no increase to <2 fold increase),0 to 10%,0 to 10%,,,,
Cc1cnc(-c2cc(-c3ccon3)n(Cc3ccccc3F)n2)nc1N [Compound I-297],,,,,,,20 to 40%,60 to 80%,< 2000 nM,"EC50 [2]: < 20000 nM; Emax [2, 5]: 40 to 60%; Emax [2, 6]: 80 to 100%"
CCOC(=O)c1cnc(-c2cc(-c3ccon3)n(Cc3ccccc3F)n2)nc1Cl [Compound I-140],,,,,,,,,,"inhibition at 1 µM (Thoracic aortic rings; Table 10A): 20 to 40%; inhibition at 3 µM (Thoracic aortic rings; Table 10A): 60 to 80%; inhibition at 10 µM (Thoracic aortic rings; Table 10A): 80 to 100%; EC50 (Thoracic aortic rings; Table 10A): < 2000 nM; Emax at 10 µM [2, 8]: 60 to 80%; Emax at 30 µM [2, 9]: 40 to 60%"
Fc1ccc(-c2cc(-c3ccccn3)nn2Cc2ccccc2F)cc1 [Compound I-12],C (C = 100 to <200),A (A = no increase to <2 fold increase),C (C = 100 to <200),A (A = no increase to <2 fold increase),0 to 10%,0 to 10%,,,,
Fc1ccccc1Cn1nc(-c2ncccn2)cc1-c1ccno1 [Compound I-305],,,,,,,40 to 60%,80 to 100%,< 2000 nM,inhibition at 10 µM (Thoracic aortic rings; Table 10B): 100 to 120%
Fc1ccccc1Cn1nc(-c2ccccn2)cc1-c1ncccn1 [Compound I-80],,,,,,,,,,"sGC Enzyme (fold increase at 10 μM) ([1]; 10 μM compound, without the addition of SNP): A (A = no increase to <2 fold increase); sGC Enzyme (fold increase at 30 μM) ([1]; 30 μM compound, without the addition of SNP): A (A = no increase to <2 fold increase); Emax at 10 µM [2, 8]: 0 to 10%; Emax at 30 µM [2, 9]: 0 to 10%"
Fc1ccccc1Cn1nc(-c2ncccn2)cc1-c1cc2ccccc2o1 [Compound I-68],,A (A = no increase to <2 fold increase),,A (A = no increase to <2 fold increase),0 to 10%,0 to 10%,,,,
Oc1nc(-c2cc(-c3ccon3)n(Cc3ccccc3F)n2)ncc1F [Compound I-161],,,,,,,80 to 100%,100 to 120%,< 2000 nM,
CCOC(=O)c1cnc(-c2cc(-c3ccon3)n(Cc3ccccc3F)n2)nc1O [Compound I-138],,,,,,,,,,"inhibition at 1 µM (Thoracic aortic rings; Table 10A): 20 to 40%; inhibition at 3 µM (Thoracic aortic rings; Table 10A): 40 to 60%; EC50 (Thoracic aortic rings; Table 10A): 2000 to 4000 nM; Emax at 10 µM [2, 8]: 40 to 60%; Emax at 30 µM [2, 9]: 40 to 60%"
N#Cc1ccc(-c2cc(-c3ccccn3)nn2Cc2ccccc2F)cc1 [Compound I-17],B (B = 50 to <100),A (A = no increase to <2 fold increase),B (B = 50 to <100),A (A = no increase to <2 fold increase),,,,,,
"CS(=O)(=O)c1ccc(-c2cc(-c3ccccn3)n(Cc3ccccc3F)n2)nc1 [Compound I-50, 2-(1-(2-fluorobenzyl)-5-(pyridin-2-yl)-1H-pyrazol-3-yl)-5-(methylsulfonyl)pyridine]",B (B = 50 to <100),A (A = no increase to <2 fold increase),B (B = 50 to <100),A (A = no increase to <2 fold increase),0 to 10%,0 to 10%,,,,
Cc1cc(-c2cc(-c3ccccn3)nn2Cc2ccccc2F)c(C)s1 [Compound I-8],C (C = 100 to <200),A (A = no increase to <2 fold increase),D (D = 200 to <500),B (B = 2 to <5 fold increase),0 to 10%,0 to 10%,,,,
Nc1nc(-c2cc(-c3ccon3)n(Cc3ccccc3F)n2)ncc1NC(=O)c1nccs1 [Compound I-189],,,,,,,80 to 100%,80 to 100%,< 2000 nM,"EC50 [2]: < 20000 nM; Emax [2, 7]: 60 to 80%; Emax [2, 5]: 60 to 80%; Emax [2, 6]: 60 to 80%"

# Reference: US10189809B2, “SGC stimulators” (Ironwood Pharmaceuticals, Inc., priority 2010, dated 2019)
